Source: patent US7217831B2 (priority 2001, dated 2007)

What was measured:
[1] = system: Helicoverpa armigera larvae; assay: Glasshouse trial on geranium seedlings, racemic and isomeric C1 (Example 20); assay type: in vivo; settings: Trial 1; 25 mM dose sprayed on geranium
[2] = system: Helicoverpa spp. larvae; assay: Field trial, commercial cotton crop, Kununurra (Example 19); assay type: in vivo, Helicoverpa armigera; settings: C1 plus EDTA 1.0 kg/ha each

Compound | Estimated leaf damage (%) at 7 DAA [1] | Mean number of larvae/leaf at 7 DAA [1] | Mean number TLVA*/10 Terminals, 3 DAA ([2]; 3 days after application, C1 2.0 kg/ha, EDTA 2.0 kg/ha) | efficacy against Helicoverpa spp. infesting cotton (in words) ([2]; EDTA alone 2.0 kg/ha) | Mean number TLVA*/10 Terminals, −1 DAA ([2]; pre-application count, C1 2.0 kg/ha, EDTA 2.0 kg/ha)
CC(C)[C@H](NCP(=O)(O)O)C(=O)O [D-C1, N-phosphonomethyl valine] | 55% | 3.5 |  |  | 
O=C(O)CN(CCN(CC(=O)O)CC(=O)O)CC(=O)O [EDTA, ethylenediaminetetraacetic acid] |  |  | 6.0 | no apparent influence on larval survival | 0.0
CC(C)[C@H](NCP(=O)(O)O)C(=O)O [L-C1, N-phosphonomethyl valine] | 35% | 2.3 |  |  | 
